For four compounds, EC50 results are on record in patent publication US9409900B2, “Compound for increasing kinase active and application thereof” (FUJIAN HAIXI PHARMACEUTICALS, INC., priority 2010, dated 2016).

One may read the EC50 as the concentration at which the effect is half-maximal. Read a high EC50 as a less potent agent.

Molecules are shown by their SMILES.

The target of this assay is glucokinase (Homo sapiens (Human), UniProt P35557). Description: Glucokinase Activation Assay. To be noted: 5 mM glucose, 100 nM glucokinase, G6PDH-coupled, absorbance at 340 nm, pH 7.1. In kind it is biochemical. Here is the method: The final assay volume was 200 uL and the final buffer conditions used in this assay were as follows: 25 mM HEPES, 5 mM glucose, 1 mM ATP, 2 mM MgCl2, 1 mM NAD, 1 mM DTT, 8.5 U/mL G6PDH, 100 nM glucokinase, and 25 mM KCl. The buffer pH was 7.1. The mixture A was first made containing KCl, MgCl2, DTT and Glucose in HEPES buffer. The mixture B was made containing NAD and ATP. The test compound in DMSO solution, the mixture A, the mixture B and G6PDH were first mixed in a 96-well plate. Glucokinase was then added to initiate the reaction, and the absorbance at 340 nm was monitored every 5 mins. The activity of glucokinase was represented by the initial generation rate of glucose-6-phosphate, which was calculated by drawing the slope values from the absorbance changing curve at 340 nm vs. the time points.
glucokinase, sequence (P35557 whole entry, species assumed): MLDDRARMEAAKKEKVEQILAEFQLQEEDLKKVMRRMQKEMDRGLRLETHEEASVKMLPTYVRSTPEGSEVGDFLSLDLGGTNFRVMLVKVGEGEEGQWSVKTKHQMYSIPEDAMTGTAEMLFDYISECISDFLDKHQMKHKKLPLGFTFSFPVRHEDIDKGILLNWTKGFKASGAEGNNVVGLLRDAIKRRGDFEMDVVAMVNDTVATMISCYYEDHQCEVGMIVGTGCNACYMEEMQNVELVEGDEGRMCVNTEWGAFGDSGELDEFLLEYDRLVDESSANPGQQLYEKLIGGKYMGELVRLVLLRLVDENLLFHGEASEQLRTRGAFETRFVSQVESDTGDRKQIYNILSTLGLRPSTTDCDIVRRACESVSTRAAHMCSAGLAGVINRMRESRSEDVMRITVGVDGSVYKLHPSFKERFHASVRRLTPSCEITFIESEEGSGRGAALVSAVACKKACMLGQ
`CN(C)C(=O)c1ccc(Oc2ccc(Nc3ccc(CCC(=O)O)cn3)cc2CN2CCCC2=O)cn1` [Example 78, 3-(6-(4-(6-(dimethylcarbamoyl)pyridin-3-yloxy)-3-((2-oxopyrrolidin-1-yl)methyl)phenylamino)pyridin-3-yl) propanoic acid] gave an EC50 of 1500 nM.

In the case of `CS(=O)(=O)c1ccc(Oc2ccc(Nc3ccc(C(=O)O)cn3)cc2CN2CCCC2=O)cn1` [Example 6, 6-(4-(6-(methylsulfonyl)pyridin-3-yloxy)-3-((2-oxopyrrolidin-1-yl)methyl)phenylamino) nicotinic acid], the EC50 was determined as 2000 nM. As for `Cc1cnc(Nc2ccc(Oc3ccc(S(C)(=O)=O)nc3)c(CN3CCCC3=O)c2)s1` [Example 13, 1-(2-(6-(methylsulfonyl)pyridin-3-yloxy)-5-(5-methylthiazol-2-ylamino)benzyl)pyrrolidin-2-one], the figure is 2000 nM; as for `CN(C)C(=O)c1ccc(Oc2ccc(Nc3ccccn3)cc2CN2CCCC2=O)cn1` [Example 65, N,N-dimethyl-5-(2-((2-oxopyrrolidin-1-yl)methyl)-4-(pyridin-2-ylamino)phenoxy)picolinamide], 5000 nM.
